{"source": "paper PMC9653166", "about": "(Journal of medicinal chemistry, 2022)", "key": {"[1]": {"target": "T1, Sirt3 (Homo sapiens, UniProt Q9NTG7)", "T1 sequence (Q9NTG7 114-380)": "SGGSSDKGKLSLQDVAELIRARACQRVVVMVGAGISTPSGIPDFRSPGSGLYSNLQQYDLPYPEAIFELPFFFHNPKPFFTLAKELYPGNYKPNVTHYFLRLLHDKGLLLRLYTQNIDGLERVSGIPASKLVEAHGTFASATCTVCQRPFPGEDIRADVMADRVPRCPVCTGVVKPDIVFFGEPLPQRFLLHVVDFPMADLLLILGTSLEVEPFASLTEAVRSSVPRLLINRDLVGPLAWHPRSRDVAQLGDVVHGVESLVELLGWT", "experiment": "Coupled enzymatic deacetylation assay, Sirt3 with ACS2-acK642 peptide", "format": "biochemical", "conditions": "for Effect on Sirt3 activity (in words): coupled assay, ACS2 peptide, 10 and 100 μM compound"}, "[2]": {"tested_on": "Sirt1-3", "conditions": "FdL substrate; cited from earlier work"}, "[3]": {"tested_on": "glutaminase (GLS)", "experiment": "GLS activity assay in MDA-MB-231 cell lysates", "format": "cell-based, human", "conditions": "MDA-MB-231 cells, 50 μM, 4 and 24 h"}, "[4]": {"target": "T2, Sirt4 (Homo sapiens, UniProt Q9Y6E7)", "T2 sequence (Q9Y6E7 29-314)": "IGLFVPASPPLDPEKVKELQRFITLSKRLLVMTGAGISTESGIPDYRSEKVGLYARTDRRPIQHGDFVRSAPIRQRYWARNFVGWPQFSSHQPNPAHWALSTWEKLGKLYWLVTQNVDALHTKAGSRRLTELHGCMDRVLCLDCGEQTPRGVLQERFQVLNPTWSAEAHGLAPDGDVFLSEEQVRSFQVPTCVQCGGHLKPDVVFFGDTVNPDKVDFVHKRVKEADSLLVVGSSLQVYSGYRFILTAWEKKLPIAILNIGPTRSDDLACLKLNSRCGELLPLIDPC", "experiment": "Sirt4 activity test", "format": "biochemical", "conditions": "100 μM compound"}, "[5]": {"target": "T3, Sirt5 (Homo sapiens, UniProt Q9NXA8)", "T3 sequence (Q9NXA8 34-302)": "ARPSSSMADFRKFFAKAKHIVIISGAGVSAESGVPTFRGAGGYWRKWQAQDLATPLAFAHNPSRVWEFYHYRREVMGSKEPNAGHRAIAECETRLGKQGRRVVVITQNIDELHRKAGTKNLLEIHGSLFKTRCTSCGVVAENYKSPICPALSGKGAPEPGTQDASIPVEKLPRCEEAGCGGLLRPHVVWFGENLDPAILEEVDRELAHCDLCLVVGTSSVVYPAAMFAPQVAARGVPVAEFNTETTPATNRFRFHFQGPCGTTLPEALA", "experiment": "Coupled enzymatic desuccinylation assay, Sirt5 with CPS1-succK537 peptide", "format": "biochemical"}, "[6]": {"tested_on": "GOT1 acetylation", "experiment": "GOT1 acetylation Western blot in pancreatic cancer cell lines", "format": "cell-based"}, "[7]": {"target": "T4, Sirt5 (Homo sapiens, UniProt Q9NXA8)", "T4 sequence (Q9NXA8 37-310)": "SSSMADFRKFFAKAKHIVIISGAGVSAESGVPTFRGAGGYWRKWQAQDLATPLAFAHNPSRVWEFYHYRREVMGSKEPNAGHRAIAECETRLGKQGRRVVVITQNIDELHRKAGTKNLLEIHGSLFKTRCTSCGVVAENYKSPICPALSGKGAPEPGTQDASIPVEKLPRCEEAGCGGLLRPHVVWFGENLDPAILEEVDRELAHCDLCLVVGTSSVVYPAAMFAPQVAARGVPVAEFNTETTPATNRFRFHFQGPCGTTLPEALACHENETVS", "experiment": "PDC deacylation assay: PDHA1 desuccinylation by recombinant Sirt5", "format": "biochemical", "conditions": "100 μM compound, PDHA1 from porcine heart tissue"}, "[8]": {"tested_on": "MDA-MB-231 cells", "experiment": "Ammonia level assay, MDA-MB-231 cells", "format": "cell-based, human", "conditions": "50 μM, 4 and 24 h"}, "[9]": {"target": "T5, Sirt2 (Homo sapiens, UniProt Q8IXJ6)", "T5 sequence (Q8IXJ6 43-356)": "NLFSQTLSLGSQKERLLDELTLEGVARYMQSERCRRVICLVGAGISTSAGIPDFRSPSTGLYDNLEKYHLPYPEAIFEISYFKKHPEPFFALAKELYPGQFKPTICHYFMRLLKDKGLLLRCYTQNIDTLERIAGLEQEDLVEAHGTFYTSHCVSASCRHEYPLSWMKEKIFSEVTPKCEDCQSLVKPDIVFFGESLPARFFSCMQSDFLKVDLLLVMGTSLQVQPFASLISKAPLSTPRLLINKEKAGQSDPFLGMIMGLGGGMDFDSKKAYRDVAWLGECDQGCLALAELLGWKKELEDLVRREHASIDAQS", "experiment": "Coupled enzymatic deacetylation assay, Sirt2 with α-tubulin-acK25 peptide", "format": "biochemical", "conditions": "coupled assay, 10 and 100 μM compound"}, "[10]": {"target": "Sirt6 (Homo sapiens, UniProt Q8N6T7)", "sequence (Q8N6T7 whole entry)": "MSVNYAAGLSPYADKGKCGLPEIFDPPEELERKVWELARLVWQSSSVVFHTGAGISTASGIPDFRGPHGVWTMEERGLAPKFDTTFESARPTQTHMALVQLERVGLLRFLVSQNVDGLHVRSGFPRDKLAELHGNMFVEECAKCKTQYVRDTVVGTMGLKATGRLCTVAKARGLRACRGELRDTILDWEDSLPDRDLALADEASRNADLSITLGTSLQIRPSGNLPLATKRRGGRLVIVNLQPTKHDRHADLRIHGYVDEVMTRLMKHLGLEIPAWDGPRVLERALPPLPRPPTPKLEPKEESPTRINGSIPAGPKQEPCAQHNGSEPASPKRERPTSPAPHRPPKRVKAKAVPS", "experiment": "Sirt6 activity test", "format": "biochemical", "conditions": "100 μM compound"}, "[11]": {"target": "T3, Sirt5", "experiment": "NAD+ titration kinetics of Sirt5", "format": "biochemical", "conditions": "in presence of 200 μM compound (without compound 1.6 ± 0.1)"}, "[12]": {"target": "T1, Sirt3", "experiment": "Microscale thermophoresis binding to Sirt3"}, "[13]": {"target": "T3, Sirt5", "experiment": "MS-based desuccinylation assay, Sirt5 with CPS1-succK537", "format": "biochemical", "conditions": "100 μM compound"}, "[14]": {"tested_on": "GDH", "experiment": "GDH activity assay in MDA-MB-231 cell lysates", "format": "cell-based, human", "conditions": "wild-type MDA-MB-231 cells, 50 μM, 4 or 24 h"}, "[15]": {"target": "T6, Sirt1 (Homo sapiens, UniProt Q96EB6)", "T6 sequence (Q96EB6 1-747)": "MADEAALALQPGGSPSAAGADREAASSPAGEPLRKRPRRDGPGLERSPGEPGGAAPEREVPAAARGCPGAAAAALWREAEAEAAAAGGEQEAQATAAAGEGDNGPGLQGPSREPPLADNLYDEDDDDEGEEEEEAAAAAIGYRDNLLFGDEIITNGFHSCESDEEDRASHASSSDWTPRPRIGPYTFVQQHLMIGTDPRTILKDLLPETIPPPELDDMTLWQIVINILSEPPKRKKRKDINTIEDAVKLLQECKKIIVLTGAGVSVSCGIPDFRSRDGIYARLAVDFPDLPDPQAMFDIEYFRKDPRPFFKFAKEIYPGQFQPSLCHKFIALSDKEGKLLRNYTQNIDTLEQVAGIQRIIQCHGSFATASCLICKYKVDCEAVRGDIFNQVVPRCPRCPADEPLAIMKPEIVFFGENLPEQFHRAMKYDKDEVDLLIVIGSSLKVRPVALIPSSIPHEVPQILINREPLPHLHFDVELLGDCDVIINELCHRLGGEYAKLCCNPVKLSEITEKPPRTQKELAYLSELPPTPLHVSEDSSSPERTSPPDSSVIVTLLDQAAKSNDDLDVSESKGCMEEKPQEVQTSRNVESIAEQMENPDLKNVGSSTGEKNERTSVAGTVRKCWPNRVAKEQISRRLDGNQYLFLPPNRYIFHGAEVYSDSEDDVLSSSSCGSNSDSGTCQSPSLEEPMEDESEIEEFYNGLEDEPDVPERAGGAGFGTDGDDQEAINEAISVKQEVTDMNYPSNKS", "experiment": "Coupled enzymatic deacetylation assay, Sirt1 with p53-acK381 peptide", "format": "biochemical", "conditions": "10 and 100 μM compound"}, "[16]": {"target": "T7, Sirt3 (Homo sapiens, UniProt Q9NTG7)", "T7 sequence (Q9NTG7 1-399)": "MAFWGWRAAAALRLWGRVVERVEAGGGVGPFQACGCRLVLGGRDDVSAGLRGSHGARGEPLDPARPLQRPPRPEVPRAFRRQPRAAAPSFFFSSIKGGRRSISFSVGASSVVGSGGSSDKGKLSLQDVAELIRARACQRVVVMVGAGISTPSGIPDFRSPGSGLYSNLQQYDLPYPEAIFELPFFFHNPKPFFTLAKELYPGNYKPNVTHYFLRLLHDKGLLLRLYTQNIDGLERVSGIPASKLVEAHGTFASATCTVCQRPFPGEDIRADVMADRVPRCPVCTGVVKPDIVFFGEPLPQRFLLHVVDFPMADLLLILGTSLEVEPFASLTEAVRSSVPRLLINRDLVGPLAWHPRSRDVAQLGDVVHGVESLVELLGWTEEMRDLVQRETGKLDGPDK", "experiment": "Cellular SIRT3 deacetylase activity assay", "format": "cell-based", "conditions": "MDA-MB-231 cells, 50 and 100 μM, 3 h"}, "[17]": {"target": "T1, Sirt3", "experiment": "Sirt3-dependent deacetylation of a panel of eleven acetylated peptides", "format": "biochemical"}, "[18]": {"tested_on": "GDH acetylation", "experiment": "GDH immunoprecipitation and Lys acetylation Western blot, MDA-MB-231 cells", "format": "cell-based, human", "conditions": "50 μM"}, "[19]": {"target": "T3, Sirt5", "experiment": "Microscale thermophoresis binding to Sirt5"}, "[20]": {"target": "T1, Sirt3", "experiment": "MS-based deacetylation assay, Sirt3 with ACS2 peptide", "format": "biochemical", "conditions": "100 μM compound"}, "[21]": {"tested_on": "Sirt3", "conditions": "cited from earlier work"}}}
{"compound": "CCOC(=O)C1=CN(Cc2ccccc2)C=C(C(=O)OCC)C1c1ccccc1", "note": "[Compound 1]", "values": [{"measurement": "Effect on Sirt3 activity (in words)", "setting": "[1]", "result": "Sirt3 activation"}, {"measurement": "Sirt1-3 activation in the FdL assay", "setting": "[2]", "result": "Sirt1-3 activating properties"}]}
{"compound": "CCOC(=O)C1=CN(C(=O)c2ccccc2)C=C(C(=O)OCC)C1c1ccsc1", "note": "[Compound 30, Diethyl 1-Benzoyl-4-(thiophen-3-yl)-1,4-dihydropyridine-3,5-dicarboxylate]", "values": [{"measurement": "GLS activity in cell lysates", "setting": "[3]", "result": "decreased GLS activity"}, {"measurement": "Effect on Sirt3 activity (in words)", "setting": "[1]", "result": "no significant effects"}, {"measurement": "Effect on Sirt4", "setting": "[4]", "result": "weak, partial inhibition"}, {"measurement": "EC50", "setting": "[5]", "result": "~40", "unit": "µM"}, {"measurement": "Sirt5 activation (CPS1-succK537 desuccinylation)", "setting": "[5]; 100 μM compound", "result": "3- to 3.5 fold"}, {"measurement": "Maximum activation of Sirt5", "setting": "[5]; titration, beyond 200 μM compound concentration", "result": 5, "unit": "fold"}, {"measurement": "GOT1 acetylation", "setting": "[6]; S2–013 and Capan1 cell lines, 20 μM, 24 h", "result": "decrease GOT1 acetylation"}, {"measurement": "Effect on GOT1 acetylation", "setting": "[6]; SIRT5 knockout KPC and KPCS cell lines", "result": "negligible"}, {"measurement": "Sirt5-dependent desuccinylation of PDHA1", "setting": "[7]", "result": "clearly enhanced"}, {"measurement": "Ammonia accumulation", "setting": "[8]", "result": "blocked ammonia accumulation"}, {"measurement": "Effect on Sirt2 activity (in words)", "setting": "[9]", "result": "no significant effects"}, {"measurement": "Effect on Sirt6", "setting": "[10]", "result": "weak, partial inhibition"}, {"measurement": "NAD+ kinetics vmax of Sirt5", "setting": "[11]", "result": "2.3 ± 0.1", "unit": "nmol/mg/min"}, {"measurement": "Kd", "setting": "[12]", "result": "138 ± 37", "unit": "µM"}, {"measurement": "Sirt5 activation in MS-based assay", "setting": "[13]", "result": "confirmed the activation of Sirt5-dependent desuccinylation"}, {"measurement": "GDH activity in cell lysates", "setting": "[14]", "result": "decreased GDH activity"}, {"measurement": "Effect on Sirt1 activity (in words)", "setting": "[15]", "result": "no significant effects"}]}
{"compound": "CCOC(=O)C1=CN(C(=O)c2cc(OC)c(OC)c(OC)c2)C=C(C(=O)OCC)C1c1ccccc1", "note": "[Compound 31, Diethyl 4-Phenyl-1-(3,4,5-trimethoxybenzoyl)-1,4-dihydropyridine-3,5-dicarboxylate]", "values": [{"measurement": "FdL deacetylation (Sirt3) activity in cell lysates", "setting": "[16]", "result": "significant increase in FdL deacetylation activity"}, {"measurement": "Stimulation of Sirt3-dependent deacetylation of all panel substrates", "setting": "[17]; 10 μM compound", "result": "weakly"}, {"measurement": "Stimulation of Sirt3-dependent deacetylation of all panel substrates", "setting": "[17]; 100 μM compound", "result": "significantly"}, {"measurement": "Sirt3 activity", "setting": "[1]; 100 μM compound", "result": "more than 400%"}, {"measurement": "Effect on Sirt4", "setting": "[4]", "result": "partial Sirt4 inhibition"}, {"measurement": "Effect on Sirt5 activity (in words)", "setting": "[5]; coupled assay, 10 and 100 μM compound", "result": "no significant effects"}, {"measurement": "GDH overall Lys acetylation", "setting": "[18]", "result": "decreased acetylation levels"}, {"measurement": "Kd", "setting": "[19]", "result": "83 ± 19", "unit": "µM"}, {"measurement": "Effect on Sirt2 activity (in words)", "setting": "[9]", "result": "no significant effects"}, {"measurement": "Sirt3 activation in MS-based assay", "setting": "[20]", "result": "activated Sirt3-dependent deacetylation of the ACS2 peptide"}, {"measurement": "Effect on Sirt6", "setting": "[10]", "result": "no significant effects"}, {"measurement": "Kd", "setting": "[12]", "result": "32 ± 7", "unit": "µM"}, {"measurement": "Effect on Sirt1 activity (in words)", "setting": "[15]", "result": "no significant effects"}]}
{"compound": "C=CCc1ccc(O)c(-c2ccc(O)c(CC=C)c2)c1", "note": "[honokiol]", "values": [{"measurement": "Sirt3 activation", "setting": "[21]", "result": "weakly activate Sirt3"}]}
